# Assay results: ChEMBL document CHEMBL5500416, “Development of a Potent and Selective G2A (GPR132) Agonist” (J Med Chem, 2024)
# Key:
# [1] = target: T1, Probable G-protein coupled receptor 132 (Homo sapiens, UniProt Q9UNW8)
# T1 sequence (Q9UNW8 whole entry): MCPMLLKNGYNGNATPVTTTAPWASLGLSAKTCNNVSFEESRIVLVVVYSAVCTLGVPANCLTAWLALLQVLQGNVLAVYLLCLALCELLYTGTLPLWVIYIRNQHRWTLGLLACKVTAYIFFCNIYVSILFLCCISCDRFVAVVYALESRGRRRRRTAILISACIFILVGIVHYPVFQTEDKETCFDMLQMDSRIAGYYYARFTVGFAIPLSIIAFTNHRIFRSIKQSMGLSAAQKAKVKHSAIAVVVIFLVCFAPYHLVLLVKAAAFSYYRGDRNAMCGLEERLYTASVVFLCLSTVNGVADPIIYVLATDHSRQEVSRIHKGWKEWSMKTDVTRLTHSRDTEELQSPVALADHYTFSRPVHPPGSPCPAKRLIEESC
# Description: Agonist activity at human G2A expressed in CHO-K1 cells co-expressing human GNA11 assessed as accumulation of IP-1 incubated for 90 mins by HTRF based FRET assay
# [2] = Tmax in male C57BL/6N mouse at 10 mg/kg, sc measured after 12 hrs by LC-MS analysis; type: ADME, organism-based; settings: in vivo
# [3] = Cmax in male C57BL/6N mouse at 1 mg/kg, iv measured after 8 hrs by LC-MS analysis; type: ADME, organism-based; settings: in vivo
# [4] = AUC (0 to 12 hrs) in male C57BL/6N mouse at 10 mg/kg, sc measured after 12 hrs by LC-MS analysis; type: ADME, organism-based; settings: in vivo
# [5] = Metabolic stability in Sprague-Dawley rat liver microsomes assessed as parent compound remaining measured after 60 mins in presence of NADPH regenerating system by HPLC analysis; type: ADME, Microsome; settings: read-out: Stability
# [6] = Clearance in male C57BL/6N mouse at 10 mg/kg, sc measured after 12 hrs by LC-MS analysis; type: ADME, organism-based; settings: in vivo
# [7] = Drug concentration in male C57BL/6N mouse plasma at 1 mg/kg, iv measured after 8 hrs by LC-MS analysis; type: ADME, organism-based
# [8] = AUC (0 to 8 hrs) in male C57BL/6N mouse at 1 mg/kg, iv measured after 8 hrs by LC-MS analysis; type: ADME, organism-based; settings: in vivo
# [9] = Aqueous solubility of compound in PBS at pH 7.4 measured after 24 hrs by microplate analysis; type: physicochemical; settings: buffer, pH 7.4, 24 h
# [10] = Drug concentration in male C57BL/6N mouse plasma at 10 mg/kg, sc measured after 12 hrs by LC-MS analysis; type: ADME, organism-based
# [11] = target: T1, Probable G-protein coupled receptor 132; remark: listed apart in the source
# Description: Binding affinity to SmBit-tagged human G2A expressed in CHOK-1 cells co-expressing LgBit-betaarrestin2 incubated for 15 mins by NanoLuc betaarrestin2 recruitment assay
# [12] = Cytotoxicity against human HepG2 cells assessed as cell viability upto 100 uM incubated for 72 hrs by CellTiter-Glo assay relative to control; type: toxicity, cell-based; settings: read-out: Activity
# [13] = Metabolic stability in Sprague-Dawley rat liver microsomes assessed as intrinsic clearance measured after 60 mins in presence of NADPH regenerating system by HPLC analysis; type: ADME, Microsome; settings: 1 h
# [14] = Tmax in male C57BL/6N mouse at 1 mg/kg, iv measured after 8 hrs by LC-MS analysis; type: ADME, organism-based; settings: in vivo
# [15] = Cmax in male C57BL/6N mouse at 10 mg/kg, sc measured after 12 hrs by LC-MS analysis; type: ADME, organism-based; settings: in vivo
EC50 [1],SMILES,further results
12.2 µM,O=C(N[C@@H](CC1CCCCC1)C(=O)O)c1cccc(OCc2cccnc2)c1,
27.5 µM,CCC(NC(=O)c1cccc(OCc2cccnc2)c1)C(=O)O (stereo unspecified),
40.6 µM,CCC[C@@H](NC(=O)c1cccc(OCc2cccnc2)c1)C(=O)O,
6.87 µM,CCCC(NC(=O)c1cccc(OCc2cccnc2)c1)C(=O)O (stereo unspecified),
> 100 µM,COC[C@H](NC(=O)c1cccc(OCc2cccnc2)c1)C(=O)O,
> 100 µM,O=C(NC(C(=O)O)C1CC1)c1cccc(OCc2cccnc2)c1 (stereo unspecified),
31.1 µM,O=C(N[C@@H](Cc1ccccc1)C(=O)O)c1cccc(OCc2cccnc2)c1,
49.7 µM,O=C(NC(Cc1ccncc1)C(=O)O)c1cccc(OCc2cccnc2)c1 (stereo unspecified),
2.92 µM,CCC[C@H](NC(=O)c1cccc(OCc2cccnc2)c1)C(=O)O,
13.5 µM,O=C(NC(Cc1ccccc1Cl)C(=O)O)c1cccc(OCc2cccnc2)c1 (stereo unspecified),
7.33 µM,CC(C)[C@H](NC(=O)c1cccc(OCc2cccnc2)c1)C(=O)O,
68.5 µM,O=C(N[C@@H](CCc1ccccc1)C(=O)O)c1cccc(OCc2cccnc2)c1,
64.8 µM,CC(C)[C@@H](NC(=O)c1cccc(OCc2cccnc2)c1)C(=O)O,

# Continued, molecule first:
SMILES,EC50 [1],further results
O=C1C2=C(CCN(Cc3ccccc3)C2)N2CCN=C2N1Cc1ccc(C(F)(F)F)cc1,3.92 µM,
O=C(N[C@H](Cc1ccccc1)C(=O)O)c1cccc(OCc2cccnc2)c1,0.82 µM,"Tmax [2]: 30 min; Cmax [3]: 45.3 ng/mL; AUC(0-t) at 12 h [4]: 591 ng·h/mL; remaining at 1 h [5]: 98%; CL/F [6]: 141 mL/min/kg; concentration at 8 h [7]: 2.4 ng/mL; AUC(0-t) at 8 h [8]: 47.3 ng·h/mL; solubility [9]: >= 3000 uM; concentration at 12 h [10]: 2.9 ng/mL; EC50 [11]: 7.7 µM; viability at 72 h, up to 100 µM [12]: ≥ 90%; CLint [13]: 1.68 µL/min/mg; Tmax [14]: 15 min; Cmax [15]: 755 ng/mL"
O=C(NC(Cc1ccccc1)C(=O)O)c1cccc(OCc2ccccc2)c1 (stereo unspecified),7.5 µM,
O=C(N[C@H](Cc1ccc(Cl)cc1)C(=O)O)c1cccc(OCc2cccnc2)c1,7.53 µM,
O=C(N[C@@H](C(=O)O)c1ccccc1)c1cccc(OCc2cccnc2)c1,38.4 µM,
C[C@H]1CC[C@@](NC(=O)c2cccc(OCc3cccnc3)c2)(C(=O)O)CC1,13.2 µM,
O=C(NC(Cc1ccc(F)cc1)C(=O)O)c1cccc(OCc2cccnc2)c1 (stereo unspecified),1.96 µM,
O=C(NC(Cc1ccccc1)C(=O)O)c1cccc(OCc2cccnc2)c1 (stereo unspecified),1.74 µM,"viability at 72 h, up to 100 µM [12]: ≥ 90%"
O=C(N[C@H](CCc1ccccc1)C(=O)O)c1cccc(OCc2cccnc2)c1,12 µM,
O=C(NC(C(=O)O)c1cccnc1)c1cccc(OCc2cccnc2)c1 (stereo unspecified),79.2 µM,
O=C(N[C@H](Cc1ccc(C(F)(F)F)cc1)C(=O)O)c1cccc(OCc2cccnc2)c1,8.71 µM,
CC(NC(=O)c1cccc(OCc2cccnc2)c1)(C(=O)O)c1ccccc1 (stereo unspecified),6.2 µM,
CC(c1ccccc1)C(NC(=O)c1cccc(OCc2cccnc2)c1)C(=O)O (stereo unspecified),19.6 µM,
CCCCC/C=C\C=C\C(O)CCCCCCCC(=O)O (racemic),7.5 µM,
O=C(NC(Cc1ccccc1)C(=O)O)c1cccc(OCc2ccncc2)c1 (racemic),2.87 µM,
O=C(NC(Cc1ccccc1)C(=O)O)c1ccc(OCc2cccnc2)cc1 (racemic),38.2 µM,
O=C(NC(Cc1ccc(OC(F)(F)F)cc1)C(=O)O)c1cccc(OCc2cccnc2)c1 (racemic),3.34 µM,
O=C(NC(Cc1ccccc1)C(=O)O)c1cccc(OCc2ccccn2)c1 (racemic),11.9 µM,
